{"source": "paper PMC8392721", "about": "(Journal of medicinal chemistry, 2021)", "key": {"hNatA": {"biological_target": "T1, hNatA (Homo sapiens, UniProt P41227)", "T1 sequence (P41227 1-160 limits assumed)": "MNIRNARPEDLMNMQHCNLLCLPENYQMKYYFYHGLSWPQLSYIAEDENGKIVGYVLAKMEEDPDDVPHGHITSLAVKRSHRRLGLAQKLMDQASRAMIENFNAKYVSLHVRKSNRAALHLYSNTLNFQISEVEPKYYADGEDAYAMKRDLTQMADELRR", "T1 sequence (Q9BXJ9 1-866 partner)": "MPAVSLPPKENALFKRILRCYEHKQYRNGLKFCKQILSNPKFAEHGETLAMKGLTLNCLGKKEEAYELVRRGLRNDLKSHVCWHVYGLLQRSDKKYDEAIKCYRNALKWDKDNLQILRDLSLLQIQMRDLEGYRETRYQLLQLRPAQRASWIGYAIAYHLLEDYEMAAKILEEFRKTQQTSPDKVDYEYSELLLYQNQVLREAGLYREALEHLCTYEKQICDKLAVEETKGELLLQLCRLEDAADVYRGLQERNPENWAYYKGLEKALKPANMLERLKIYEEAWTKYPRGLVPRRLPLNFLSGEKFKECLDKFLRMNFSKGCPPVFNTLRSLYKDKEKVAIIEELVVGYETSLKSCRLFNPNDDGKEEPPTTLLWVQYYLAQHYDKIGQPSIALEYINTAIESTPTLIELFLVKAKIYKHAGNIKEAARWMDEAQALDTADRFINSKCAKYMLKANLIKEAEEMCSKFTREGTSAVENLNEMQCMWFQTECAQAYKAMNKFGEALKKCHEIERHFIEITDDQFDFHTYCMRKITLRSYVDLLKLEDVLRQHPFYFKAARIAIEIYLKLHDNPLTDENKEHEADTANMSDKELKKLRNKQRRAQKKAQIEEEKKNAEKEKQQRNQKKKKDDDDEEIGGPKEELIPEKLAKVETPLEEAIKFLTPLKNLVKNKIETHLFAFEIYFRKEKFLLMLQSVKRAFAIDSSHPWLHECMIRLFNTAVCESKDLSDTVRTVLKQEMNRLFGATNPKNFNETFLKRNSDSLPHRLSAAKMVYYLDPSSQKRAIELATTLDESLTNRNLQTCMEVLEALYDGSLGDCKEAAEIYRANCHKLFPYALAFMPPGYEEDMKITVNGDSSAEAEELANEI", "test": "Selectivity assay, NatA", "type": "biochemical"}, "hMOF": {"biological_target": "T2, hMOF (Homo sapiens, UniProt Q9H7Z6)", "T2 sequence (Q9H7Z6 1-458)": "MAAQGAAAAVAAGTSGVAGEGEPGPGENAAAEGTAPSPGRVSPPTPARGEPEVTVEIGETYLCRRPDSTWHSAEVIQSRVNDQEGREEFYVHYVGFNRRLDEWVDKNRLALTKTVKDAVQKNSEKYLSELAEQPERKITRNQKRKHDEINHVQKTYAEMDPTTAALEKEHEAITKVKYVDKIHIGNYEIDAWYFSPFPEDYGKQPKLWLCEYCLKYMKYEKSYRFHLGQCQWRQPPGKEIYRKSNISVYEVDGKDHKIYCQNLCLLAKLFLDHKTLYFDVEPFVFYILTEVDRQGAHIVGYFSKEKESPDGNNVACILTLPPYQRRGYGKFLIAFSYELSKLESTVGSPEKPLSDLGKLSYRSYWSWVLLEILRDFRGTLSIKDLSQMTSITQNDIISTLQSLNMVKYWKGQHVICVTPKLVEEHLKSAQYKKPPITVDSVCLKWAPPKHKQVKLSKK", "test": "Selectivity assay, hMOF", "type": "biochemical"}, "hNatD [1]": {"biological_target": "T3, hNatD (Homo sapiens, UniProt Q86UY6)", "settings": "radioactive assay; acetyl versus propionyl linker, tripeptide SGR"}, "hNatB": {"biological_target": "hNatB (Homo sapiens, UniProt P61599)", "sequence (P61599 1-163 limits assumed)": "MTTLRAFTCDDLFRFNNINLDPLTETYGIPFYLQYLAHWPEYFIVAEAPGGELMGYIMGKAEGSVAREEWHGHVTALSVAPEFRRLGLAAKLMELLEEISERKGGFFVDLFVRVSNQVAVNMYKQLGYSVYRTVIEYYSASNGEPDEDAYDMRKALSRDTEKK", "sequence (Q14CX7 whole entry partner)": "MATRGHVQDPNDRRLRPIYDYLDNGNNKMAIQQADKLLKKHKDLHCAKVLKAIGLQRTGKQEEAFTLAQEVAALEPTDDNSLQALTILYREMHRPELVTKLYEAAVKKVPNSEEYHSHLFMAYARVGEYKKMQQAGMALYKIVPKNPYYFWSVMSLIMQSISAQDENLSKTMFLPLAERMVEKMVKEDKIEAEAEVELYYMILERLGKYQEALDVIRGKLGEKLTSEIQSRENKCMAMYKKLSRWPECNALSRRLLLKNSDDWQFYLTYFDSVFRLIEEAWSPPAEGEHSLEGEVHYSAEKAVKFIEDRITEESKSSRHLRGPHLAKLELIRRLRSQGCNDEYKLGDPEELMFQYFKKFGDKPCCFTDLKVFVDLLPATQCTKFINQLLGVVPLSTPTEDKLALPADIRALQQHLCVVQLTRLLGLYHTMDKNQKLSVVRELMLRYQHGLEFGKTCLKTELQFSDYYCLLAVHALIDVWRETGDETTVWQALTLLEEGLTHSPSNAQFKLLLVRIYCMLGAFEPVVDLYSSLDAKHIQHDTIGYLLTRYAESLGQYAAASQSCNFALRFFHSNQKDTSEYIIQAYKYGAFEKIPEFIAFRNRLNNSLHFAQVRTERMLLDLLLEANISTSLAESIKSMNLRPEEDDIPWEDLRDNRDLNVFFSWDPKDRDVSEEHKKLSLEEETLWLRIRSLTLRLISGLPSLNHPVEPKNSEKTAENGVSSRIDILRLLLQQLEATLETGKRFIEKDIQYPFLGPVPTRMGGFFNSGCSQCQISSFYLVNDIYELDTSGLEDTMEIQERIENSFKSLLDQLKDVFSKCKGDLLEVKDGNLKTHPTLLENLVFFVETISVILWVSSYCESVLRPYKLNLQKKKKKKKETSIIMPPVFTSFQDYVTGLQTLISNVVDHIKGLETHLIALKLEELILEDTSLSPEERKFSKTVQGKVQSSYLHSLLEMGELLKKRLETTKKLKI"}, "SpNatC [2]": {"biological_target": "SpNatC (Schizosaccharomyces pombe, UniProt O74311)", "sequence (O74311 whole entry)": "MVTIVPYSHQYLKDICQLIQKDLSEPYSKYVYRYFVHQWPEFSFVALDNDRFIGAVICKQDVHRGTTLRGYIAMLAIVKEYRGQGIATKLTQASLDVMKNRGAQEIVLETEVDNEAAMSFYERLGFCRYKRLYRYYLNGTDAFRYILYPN", "settings": "at 10 μM; n = 3"}, "SpNatC [3]": {"system": "SpNatC", "settings": "from no inhibition at 10 μM"}, "hNatE": {"biological_target": "hNatE (Homo sapiens, UniProt Q9GZZ1)", "sequence (Q9GZZ1 whole entry, one chain of several)": "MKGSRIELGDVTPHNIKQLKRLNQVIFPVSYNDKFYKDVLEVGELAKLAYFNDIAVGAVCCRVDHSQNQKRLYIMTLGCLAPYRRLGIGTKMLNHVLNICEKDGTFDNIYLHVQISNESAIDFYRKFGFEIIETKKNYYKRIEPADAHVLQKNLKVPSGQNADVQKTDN"}, "PCAF": {"biological_target": "PCAF (Homo sapiens, UniProt Q92831)", "sequence (Q92831 whole entry)": "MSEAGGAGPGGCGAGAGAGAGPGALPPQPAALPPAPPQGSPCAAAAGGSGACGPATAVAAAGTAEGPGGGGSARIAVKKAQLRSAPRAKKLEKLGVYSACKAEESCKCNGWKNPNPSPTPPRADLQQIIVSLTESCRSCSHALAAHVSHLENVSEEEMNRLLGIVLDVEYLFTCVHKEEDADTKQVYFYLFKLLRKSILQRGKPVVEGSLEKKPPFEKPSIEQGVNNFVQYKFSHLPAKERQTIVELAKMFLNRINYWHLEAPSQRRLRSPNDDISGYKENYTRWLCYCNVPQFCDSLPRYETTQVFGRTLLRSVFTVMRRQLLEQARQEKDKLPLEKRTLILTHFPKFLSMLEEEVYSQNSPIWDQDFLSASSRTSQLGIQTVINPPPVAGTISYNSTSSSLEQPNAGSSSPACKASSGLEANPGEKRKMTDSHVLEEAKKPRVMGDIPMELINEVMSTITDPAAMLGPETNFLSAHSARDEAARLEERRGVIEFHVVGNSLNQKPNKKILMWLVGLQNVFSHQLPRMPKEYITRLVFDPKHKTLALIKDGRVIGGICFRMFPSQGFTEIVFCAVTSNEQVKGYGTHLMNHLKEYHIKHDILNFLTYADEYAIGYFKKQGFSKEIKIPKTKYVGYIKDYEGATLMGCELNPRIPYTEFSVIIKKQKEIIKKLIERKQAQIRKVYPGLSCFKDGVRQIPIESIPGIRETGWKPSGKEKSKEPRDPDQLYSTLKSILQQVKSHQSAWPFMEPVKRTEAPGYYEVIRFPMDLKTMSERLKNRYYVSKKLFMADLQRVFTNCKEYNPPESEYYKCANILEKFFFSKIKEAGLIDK"}, "NatD": {"biological_target": "NatD (Homo sapiens, UniProt Q86UY6)", "test": "biochemical"}, "hNatD [4]": {"biological_target": "T3, hNatD", "test": "biochemical"}}, "data": [{"smiles": "CC(C)(COP(=O)(O)OP(=O)(O)OC[C@H]1O[C@@H](n2cnc3c(N)ncnc32)[C@H](O)[C@@H]1OP(=O)(O)O)[C@@H](O)C(=O)NCCC(=O)NCCSCC(=O)N[C@@H](CO)C(=O)NCC(=O)N[C@@H](CCCNC(=N)N)C(N)=O", "note": "[Compound 7, CoA-C2-SGR]", "values": [{"measurement": "IC50", "setting": "hNatA", "value": "> 100", "unit": "nM"}, {"measurement": "IC50", "setting": "hMOF", "value": "> 100", "unit": "nM"}, {"measurement": "fold more potent than 8", "setting": "hNatD [1]", "value": 2, "unit": "fold"}, {"measurement": "inhibition towards NatB", "setting": "hNatB; at 10 μM, n = 3", "value": "did not show any inhibition"}, {"measurement": "selectivity for NatD over NatB", "setting": "hNatB; from no inhibition at 10 μM", "value": "over 10,000 fold"}, {"measurement": "inhibition towards NatC", "setting": "SpNatC [2]", "value": "did not show any inhibition"}, {"measurement": "selectivity for NatD over NatC", "setting": "SpNatC [3]", "value": "over 10,000 fold"}, {"measurement": "inhibition towards NatE", "setting": "hNatE; at 10 μM, n = 3", "value": "did not show any inhibition"}, {"measurement": "selectivity for NatD over NatE", "setting": "hNatE; from no inhibition at 10 μM", "value": "over 10,000 fold"}, {"measurement": "inhibition towards PCAF", "setting": "PCAF; at 10 μM, n = 3", "value": "did not show any inhibition"}, {"measurement": "selectivity for NatD over PCAF", "setting": "PCAF; from no inhibition at 10 μM", "value": "over 10,000 fold"}, {"measurement": "IC50", "setting": "NatD", "value": "29 ± 5.6", "unit": "nM"}, {"measurement": "IC50", "setting": "hNatD [4]", "value": "16 ± 4.9", "unit": "nM"}]}]}
